Experimental data: the NIST ThermoML archive (doi:10.1007/s10765-005-8096-3)
Numbers after ± are expanded uncertainties.

Experiment: refractive index (Na D-line) (dimensionless); xn = mol fraction of the nth substance listed
Details: 101 kPa, Liquid, Standard Abbe refractometry

CC(C)c1ccccc1 [isopropylbenzene] + CCCCOC(C)=O
refractive index
Details	293.15 K	298.15 K	303.15 K	308.15 K	313.15 K
x2 = 0.0521	1.48648 ± 0.00069	1.48385 ± 0.00069	1.48124 ± 0.00068	1.47872 ± 0.00069	1.47599 ± 0.00071
x2 = 0.0998	1.48203 ± 0.00069	1.47941 ± 0.00069	1.47677 ± 0.00068	1.47424 ± 0.00069	1.47156 ± 0.0007
x2 = 0.151	1.47724 ± 0.00069	1.47459 ± 0.00069	1.47198 ± 0.00068	1.46948 ± 0.00068	1.4668 ± 0.0007
x2 = 0.2043	1.47219 ± 0.00069	1.46954 ± 0.00069	1.46694 ± 0.00068	1.46442 ± 0.00068	1.46178 ± 0.00069
x2 = 0.2496	1.4679 ± 0.00069	1.46525 ± 0.00069	1.46266 ± 0.00068	1.46014 ± 0.00068	1.45753 ± 0.00069
x2 = 0.3036	1.46273 ± 0.00069	1.46014 ± 0.00068	1.45758 ± 0.00068	1.45505 ± 0.00068	1.45243 ± 0.00069
x2 = 0.3578	1.45755 ± 0.00068	1.45496 ± 0.00068	1.45242 ± 0.00068	1.44988 ± 0.00068	1.44725 ± 0.00069
x2 = 0.4021	1.45329 ± 0.00069	1.45068 ± 0.00068	1.44815 ± 0.00068	1.44562 ± 0.00068	1.44301 ± 0.00069
x2 = 0.4514	1.4485 ± 0.00068	1.44593 ± 0.00068	1.44338 ± 0.00068	1.44086 ± 0.00068	1.43827 ± 0.00069
x2 = 0.4994	1.44384 ± 0.00068	1.44127 ± 0.00068	1.43873 ± 0.00068	1.43623 ± 0.00068	1.43363 ± 0.00069
x2 = 0.555	1.43843 ± 0.00068	1.43587 ± 0.00068	1.43334 ± 0.00068	1.43083 ± 0.00068	1.42824 ± 0.00069
x2 = 0.6017	1.43384 ± 0.00068	1.4313 ± 0.00068	1.42878 ± 0.00067	1.42629 ± 0.00068	1.42372 ± 0.00069
x2 = 0.65	1.42906 ± 0.00067	1.42655 ± 0.00067	1.42403 ± 0.00067	1.42154 ± 0.00068	1.41898 ± 0.00068
x2 = 0.6996	1.42417 ± 0.00067	1.42165 ± 0.00067	1.41914 ± 0.00067	1.41673 ± 0.00067	1.41413 ± 0.00069
x2 = 0.7493	1.41919 ± 0.00067	1.4167 ± 0.00067	1.41421 ± 0.00067	1.41175 ± 0.00067	1.40924 ± 0.00068
x2 = 0.8007	1.4141 ± 0.00067	1.41161 ± 0.00067	1.40915 ± 0.00067	1.40668 ± 0.00067	1.40412 ± 0.00068
x2 = 0.8497	1.4092 ± 0.00067	1.40674 ± 0.00067	1.40425 ± 0.00067	1.4018 ± 0.00067	1.39927 ± 0.00068
x2 = 0.8992	1.40425 ± 0.00066	1.4018 ± 0.00067	1.39931 ± 0.00066	1.39691 ± 0.00067	1.39437 ± 0.00067
x2 = 0.95	1.39913 ± 0.00065	1.39675 ± 0.00066	1.39426 ± 0.00066	1.39185 ± 0.00066	1.3894 ± 0.0007

Cc1cc(C)cc(C)c1 [1,3,5-trimethylbenzene] + CCCCOC(C)=O
refractive index
Details	293.15 K	298.15 K	303.15 K	308.15 K	313.15 K
x2 = 0.0516	1.49409 ± 0.00067	1.4916 ± 0.00067	1.48907 ± 0.00068	1.48654 ± 0.00068	1.48399 ± 0.00068
x2 = 0.1002	1.48903 ± 0.00067	1.4866 ± 0.00067	1.48406 ± 0.00067	1.4816 ± 0.00068	1.47894 ± 0.00069
x2 = 0.1506	1.48392 ± 0.00067	1.48139 ± 0.00068	1.47885 ± 0.00068	1.47632 ± 0.00068	1.47373 ± 0.00068
x2 = 0.2009	1.4787 ± 0.00067	1.47618 ± 0.00067	1.47366 ± 0.00068	1.47112 ± 0.00068	1.4686 ± 0.00068
x2 = 0.2516	1.47339 ± 0.00067	1.4709 ± 0.00067	1.46844 ± 0.00067	1.46589 ± 0.00068	1.46337 ± 0.00068
x2 = 0.2995	1.4684 ± 0.00067	1.46588 ± 0.00067	1.46345 ± 0.00067	1.46088 ± 0.00068	1.45835 ± 0.00067
x2 = 0.3481	1.46333 ± 0.00067	1.46081 ± 0.00067	1.45838 ± 0.00067	1.4558 ± 0.00068	1.45332 ± 0.00067
x2 = 0.3998	1.4579 ± 0.00067	1.45539 ± 0.00067	1.45292 ± 0.00067	1.45039 ± 0.00068	1.44787 ± 0.00067
x2 = 0.4499	1.45266 ± 0.00067	1.45014 ± 0.00067	1.44772 ± 0.00067	1.44513 ± 0.00068	1.44264 ± 0.00067
x2 = 0.5012	1.44725 ± 0.00068	1.44474 ± 0.00067	1.44227 ± 0.00067	1.43973 ± 0.00067	1.43728 ± 0.00067
x2 = 0.5517	1.44194 ± 0.00068	1.43941 ± 0.00067	1.43693 ± 0.00067	1.43441 ± 0.00067	1.43194 ± 0.00067
x2 = 0.599	1.43693 ± 0.00068	1.4344 ± 0.00067	1.43191 ± 0.00067	1.42937 ± 0.00067	1.42693 ± 0.00066
x2 = 0.6518	1.43134 ± 0.00067	1.42882 ± 0.00067	1.42637 ± 0.00067	1.42379 ± 0.00067	1.42135 ± 0.00066
x2 = 0.702	1.42599 ± 0.00067	1.42348 ± 0.00067	1.42096 ± 0.00067	1.41847 ± 0.00067	1.41604 ± 0.00066
x2 = 0.7495	1.42089 ± 0.00067	1.41842 ± 0.00067	1.41595 ± 0.00067	1.41342 ± 0.00067	1.41096 ± 0.00066
x2 = 0.8007	1.41541 ± 0.00067	1.41296 ± 0.00066	1.4105 ± 0.00067	1.40803 ± 0.00067	1.40553 ± 0.00067
x2 = 0.8531	1.40984 ± 0.00066	1.40738 ± 0.00067	1.40488 ± 0.00067	1.40245 ± 0.00066	1.39998 ± 0.00067
x2 = 0.8998	1.40482 ± 0.00066	1.4024 ± 0.00066	1.39997 ± 0.00066	1.39751 ± 0.00067	1.39502 ± 0.00067
x2 = 0.9494	1.39954 ± 0.00066	1.3971 ± 0.00066	1.39467 ± 0.00066	1.39225 ± 0.00067	1.38972 ± 0.00068

CC(C)Cc1ccccc1 [(2-methylpropyl)benzene] + CCCCOC(C)=O
refractive index
Details	293.15 K	298.15 K	303.15 K	308.15 K	313.15 K
x2 = 0.056	1.48206 ± 0.00066	1.47965 ± 0.00067	1.47708 ± 0.00069	1.47442 ± 0.00067	1.47211 ± 0.00064
x2 = 0.1042	1.47812 ± 0.00067	1.47565 ± 0.00067	1.4731 ± 0.00067	1.47066 ± 0.00067	1.46813 ± 0.00067
x2 = 0.1619	1.47345 ± 0.00067	1.47097 ± 0.00067	1.4685 ± 0.00067	1.46595 ± 0.00067	1.4635 ± 0.00068
x2 = 0.201	1.47035 ± 0.00067	1.46781 ± 0.00068	1.46524 ± 0.00068	1.46268 ± 0.00068	1.46015 ± 0.00067
x2 = 0.2486	1.46644 ± 0.00068	1.46384 ± 0.00068	1.46128 ± 0.00068	1.45868 ± 0.00068	1.45618 ± 0.00068
x2 = 0.3027	1.4618 ± 0.00068	1.45922 ± 0.00069	1.45658 ± 0.00068	1.45405 ± 0.00067	1.45156 ± 0.00067
x2 = 0.3619	1.45664 ± 0.00069	1.45401 ± 0.00068	1.45147 ± 0.00067	1.44897 ± 0.00068	1.44641 ± 0.00068
x2 = 0.3994	1.4533 ± 0.00068	1.45072 ± 0.00068	1.44816 ± 0.00068	1.44564 ± 0.00068	1.4431 ± 0.00068
x2 = 0.4537	1.44838 ± 0.00067	1.44587 ± 0.00068	1.44328 ± 0.00068	1.44077 ± 0.00067	1.43826 ± 0.00068
x2 = 0.5056	1.44366 ± 0.00067	1.4411 ± 0.00068	1.43853 ± 0.00068	1.43602 ± 0.00067	1.43356 ± 0.00067
x2 = 0.5506	1.43942 ± 0.00067	1.43693 ± 0.00067	1.43443 ± 0.00068	1.43187 ± 0.00067	1.4294 ± 0.00067
x2 = 0.5973	1.43506 ± 0.00067	1.43254 ± 0.00067	1.43002 ± 0.00067	1.4275 ± 0.00067	1.42498 ± 0.00068
x2 = 0.6485	1.43012 ± 0.00067	1.42758 ± 0.00068	1.42505 ± 0.00067	1.42256 ± 0.00067	1.42003 ± 0.00068
x2 = 0.6954	1.42551 ± 0.00067	1.423 ± 0.00067	1.42052 ± 0.00067	1.41799 ± 0.00067	1.41549 ± 0.00067
x2 = 0.751	1.41999 ± 0.00066	1.41754 ± 0.00067	1.41506 ± 0.00067	1.41255 ± 0.00067	1.41004 ± 0.00068
x2 = 0.7981	1.41525 ± 0.00066	1.41278 ± 0.00067	1.4103 ± 0.00067	1.40782 ± 0.00067	1.40532 ± 0.00067
x2 = 0.8469	1.41021 ± 0.00066	1.40779 ± 0.00066	1.40535 ± 0.00066	1.4029 ± 0.00067	1.40036 ± 0.00068
x2 = 0.8995	1.40482 ± 0.00066	1.40235 ± 0.00066	1.39997 ± 0.00065	1.39757 ± 0.00067	1.39493 ± 0.00069
x2 = 0.9482	1.39966 ± 0.00065	1.3973 ± 0.00066	1.39479 ± 0.00067	1.39237 ± 0.00066	1.38994 ± 0.00066
